Source: article PMC9027131, “Dual PI3K/Akt Inhibitors Bearing Coumarin-Thiazolidine Pharmacophores as Potential Apoptosis Inducers in MCF-7 Cells” (Pharmaceuticals, 2022)

Experiments:
PI3K-α = biological target: T1, PI3K-α (Homo sapiens, UniProt P42336); assay: PI3Kα (p110α/p85) enzyme inhibition assay kit; type: biochemical; details: means ± sd, n = 3; read-out: IC50 (µM) PI3K-α Isoform
T1 construct: purchased BPS Bioscience, Inc 79781
Source text: (§1) Accumulating evidence highlighted that PI3K signaling pathway upregulation is highly implicated in breast cancer development and disease progression as well as resistance to hormones and cytotoxic therapy. Therefore, it is essential to elucidate the effect of the novel compound, VIIb, on the PI3K/Akt signaling pathway by using in vitro PI3K class 1A enzyme inhibition assay conducted on PI3K-α and PI3K-γ isoforms as well as an Akt-1 enzyme inhibition assay. […] Furthermore, targeting the PI3K-γ isoform in breast cancer could contribute to enhancing the anti-tumor immunity.
(§2) The in vitro inhibition of PI3K and Akt kinase activities by VIIb was assessed using a PI3Kα (p110α/p85) assay kit (Catalog #79781; BPS Bioscience, Inc, San Diego, CA, USA), PI3Kγ (p110γ/PIK3R5) assay kit (Catalog #79803; BPS Bioscience, Inc, San Diego, CA, USA), and Akt Kinase Activity assay kit (ab139436; Abcam, Cambridge, UK) following the manufacturer’s instructions as described previously. The results were expressed as IC50 values using dose–response curves and linear regression equations.

PI3K-γ = biological target: T2, PI3K-γ (Homo sapiens, UniProt P48736); assay: PI3Kγ (p110γ/PIK3R5) enzyme inhibition assay kit; type: biochemical; details: means ± sd, n = 3; read-out: IC50 (µM) PI3K-γ Isoform
T2 construct: purchased BPS Bioscience, Inc 79803
Source text: as §1, §2

MCF-7 cells = assay: Annexin V-FITC/PI apoptosis assay by flow cytometry; type: cell-based, human
Source text: Remarkably, clinical oncology aims at developing novel targeted cancer therapies that could induce apoptosis in neoplastic cells to enhance their eradication. Since loss of apoptosis is closely related to cancer cell survival and abnormal growth, induction of apoptotic signaling pathways is a crucial mechanism in targeted cancer therapy. To further explore the link between apoptosis rates and VIIb treatment, the pro-apoptotic activity of this novel compound was investigated by flow cytometry using both Annexin V (V) and propidium iodide (PI) dyes. A distinctive feature of early apoptosis is phosphatidylserine transfer toward the cellular surface. Thus, phosphatidylserine can be detected by fluorochrome-tagged anticoagulant protein V. Therefore, the viable cells remained unstained (V^−/PI^−).
Control untreated and MCF-7 cells treated with compound VIIb at its IC50 (µM) for 48 h were subjected to apoptotic analysis using Annexin V (V) and propidium iodide (PI) fluorescent dyes.
Cell cycle analysis and apoptosis rates following VIIb treatment were investigated using a Propidium Iodide Flow Cytometry Kit (ab139418; Abcam, Cambridge, UK) and Annexin V-FITC apoptosis kit (Catalog: K101-25; BioVision Research Products, San Francisco, CA, USA), respectively, following the manufacturer’s instructions as stated by a previous study.

Cyclin D1, p-PI3K, p-Akt = assay: Western blot in MCF-7 cells; type: cell-based, human; details: MCF-7, IC50, 48 h, vs control untreated cells
Source text: Cyclin D1 activity is essential for the G1 to S phase transition. Moreover, the PI3K/Akt axis is crucial for cell growth and apoptosis. The effects of VIIb on Cyclin D1 and the PI3K/Akt pathway in MCF-7 cells was investigated adopting reported procedures. […] Herein, Western blot results confirmed our previous findings, highlighting the ability of the novel compound, VIIb, to inhibit the PI3K/Akt signaling pathway. […] Cyclin D1 is a proto-oncogene and a major regulator of cell cycle progression. In addition, Cyclin D1 overexpression has been linked to both breast tumorigenesis and tumor progression as well as to the development of endocrine resistance in breast cancer cells.
Whole-cell protein lysates obtained from both control as well as VIIb-treated (IC50 (µM), for 48 h) MCF-7 cells were resolved by SDS-PAGE, and then immunoblotting was conducted with antibodies against cyclin D, p-Akt, and p-PI3K compared to the housekeeping protein β-Actin.
Western blot analysis was conducted using the following primary antibodies: anti-p-Akt (1:5000; ab81283), anti-Cyclin D1 (1:1000; ab226977), anti-p-PI3K (1:1000; ab278545), and anti-beta-actin (1:1000; ab8227). Firstly, VIIb-treated and untreated cells were rinsed with PBS, and then cold lysis buffer was added to induce cell lysis. After centrifugation, the supernatants were collected, and harvested proteins were quantified by Bradford assay and then resolved on SDS-PAGE followed by electroblotting onto polyvinylidene fluoride membranes. Later, membrane blocking was conducted using 5% skimmed milk in 0.1% Tween-20 in PBS (PBST). Then membranes were incubated with the aforementioned primary antibodies at 4 °C. Following 12-h incubation, the membranes were soaked in PBST thrice followed by 1-h incubation with appropriate secondary antibodies. Antibodies were supplied from Abcam (Cambridge, UK). The signals were visualized with a chemiluminescence ECL kit (Perkin Elmer, Waltham, MA, USA) following the manufacturer’s instructions, and images were obtained using a Biorad Imager.

[1] = MCF-7, with respect to control cells

T1 sequence (P42336 whole entry, canonical isoform): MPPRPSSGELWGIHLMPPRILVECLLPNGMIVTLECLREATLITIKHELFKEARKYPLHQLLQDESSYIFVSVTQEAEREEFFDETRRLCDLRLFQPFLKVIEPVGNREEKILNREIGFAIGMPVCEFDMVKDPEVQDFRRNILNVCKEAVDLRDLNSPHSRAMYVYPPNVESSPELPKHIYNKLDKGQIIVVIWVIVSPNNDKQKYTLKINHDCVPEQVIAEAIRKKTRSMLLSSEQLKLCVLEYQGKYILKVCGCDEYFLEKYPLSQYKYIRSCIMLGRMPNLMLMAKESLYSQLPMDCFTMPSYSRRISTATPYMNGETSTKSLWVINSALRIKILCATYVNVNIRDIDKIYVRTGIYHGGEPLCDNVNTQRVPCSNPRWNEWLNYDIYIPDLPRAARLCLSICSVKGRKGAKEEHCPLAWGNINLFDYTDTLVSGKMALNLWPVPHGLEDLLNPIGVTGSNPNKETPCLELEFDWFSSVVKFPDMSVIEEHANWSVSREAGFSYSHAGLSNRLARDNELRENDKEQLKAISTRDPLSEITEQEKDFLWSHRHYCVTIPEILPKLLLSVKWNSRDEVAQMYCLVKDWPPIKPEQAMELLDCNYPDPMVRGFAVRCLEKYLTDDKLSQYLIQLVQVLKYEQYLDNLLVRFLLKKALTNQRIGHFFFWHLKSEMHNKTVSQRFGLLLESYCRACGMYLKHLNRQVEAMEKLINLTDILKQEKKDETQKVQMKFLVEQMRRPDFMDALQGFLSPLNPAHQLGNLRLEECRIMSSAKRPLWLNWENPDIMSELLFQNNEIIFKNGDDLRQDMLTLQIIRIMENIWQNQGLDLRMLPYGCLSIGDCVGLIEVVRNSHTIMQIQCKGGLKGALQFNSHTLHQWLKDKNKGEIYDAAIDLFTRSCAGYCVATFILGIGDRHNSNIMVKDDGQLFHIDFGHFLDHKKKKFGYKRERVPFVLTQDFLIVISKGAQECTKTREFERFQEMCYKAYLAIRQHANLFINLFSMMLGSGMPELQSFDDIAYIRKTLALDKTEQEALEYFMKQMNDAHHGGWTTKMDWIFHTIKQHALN
T1 sequence (P27986 whole entry partner, canonical isoform): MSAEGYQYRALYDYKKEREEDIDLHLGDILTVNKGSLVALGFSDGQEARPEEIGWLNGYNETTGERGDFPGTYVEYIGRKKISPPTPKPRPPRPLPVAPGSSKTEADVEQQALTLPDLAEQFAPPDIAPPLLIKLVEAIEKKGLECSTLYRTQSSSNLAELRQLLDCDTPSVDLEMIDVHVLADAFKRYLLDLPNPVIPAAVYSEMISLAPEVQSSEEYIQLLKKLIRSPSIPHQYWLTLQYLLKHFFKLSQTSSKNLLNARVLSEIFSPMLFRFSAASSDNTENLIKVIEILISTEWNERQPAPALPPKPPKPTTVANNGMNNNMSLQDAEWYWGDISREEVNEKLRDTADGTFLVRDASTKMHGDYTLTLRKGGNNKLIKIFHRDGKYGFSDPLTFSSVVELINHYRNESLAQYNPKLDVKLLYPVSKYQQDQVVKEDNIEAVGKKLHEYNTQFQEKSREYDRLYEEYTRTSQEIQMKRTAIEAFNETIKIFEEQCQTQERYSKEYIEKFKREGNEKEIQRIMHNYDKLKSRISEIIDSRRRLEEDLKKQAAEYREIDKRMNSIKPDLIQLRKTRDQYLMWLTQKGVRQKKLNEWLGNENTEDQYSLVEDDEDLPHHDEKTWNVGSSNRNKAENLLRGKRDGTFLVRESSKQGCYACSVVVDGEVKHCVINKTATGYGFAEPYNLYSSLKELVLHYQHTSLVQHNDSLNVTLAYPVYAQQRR
T2 sequence (P48736 whole entry, canonical isoform): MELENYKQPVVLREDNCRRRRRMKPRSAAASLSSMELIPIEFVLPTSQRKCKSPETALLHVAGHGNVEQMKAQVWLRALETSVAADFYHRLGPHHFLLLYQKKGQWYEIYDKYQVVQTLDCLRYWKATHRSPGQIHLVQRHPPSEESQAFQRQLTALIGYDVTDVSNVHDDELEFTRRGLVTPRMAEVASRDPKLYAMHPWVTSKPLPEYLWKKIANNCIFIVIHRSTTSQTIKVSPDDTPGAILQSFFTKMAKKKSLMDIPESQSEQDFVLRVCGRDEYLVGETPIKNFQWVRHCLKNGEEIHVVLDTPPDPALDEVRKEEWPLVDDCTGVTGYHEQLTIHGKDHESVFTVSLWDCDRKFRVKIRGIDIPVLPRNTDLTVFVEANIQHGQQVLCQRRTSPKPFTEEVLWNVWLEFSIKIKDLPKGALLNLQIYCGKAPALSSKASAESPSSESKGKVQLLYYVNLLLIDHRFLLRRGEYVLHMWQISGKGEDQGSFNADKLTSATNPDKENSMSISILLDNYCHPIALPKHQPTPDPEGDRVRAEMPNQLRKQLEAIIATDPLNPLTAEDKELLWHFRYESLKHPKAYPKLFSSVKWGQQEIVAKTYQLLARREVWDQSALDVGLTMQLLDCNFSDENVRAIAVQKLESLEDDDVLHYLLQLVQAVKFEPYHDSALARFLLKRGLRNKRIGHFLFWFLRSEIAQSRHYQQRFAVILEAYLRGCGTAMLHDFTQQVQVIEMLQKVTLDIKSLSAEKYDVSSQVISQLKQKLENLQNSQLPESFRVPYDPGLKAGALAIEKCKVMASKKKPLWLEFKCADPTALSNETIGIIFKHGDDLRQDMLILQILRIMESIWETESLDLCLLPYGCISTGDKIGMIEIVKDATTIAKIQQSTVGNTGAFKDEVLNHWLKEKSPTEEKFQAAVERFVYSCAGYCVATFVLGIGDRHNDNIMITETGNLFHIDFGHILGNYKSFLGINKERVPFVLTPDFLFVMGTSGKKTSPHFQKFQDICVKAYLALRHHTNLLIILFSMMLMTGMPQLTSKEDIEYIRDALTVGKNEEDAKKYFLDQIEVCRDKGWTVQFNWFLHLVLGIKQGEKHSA
T2 sequence (Q8WYR1 whole entry partner, canonical isoform): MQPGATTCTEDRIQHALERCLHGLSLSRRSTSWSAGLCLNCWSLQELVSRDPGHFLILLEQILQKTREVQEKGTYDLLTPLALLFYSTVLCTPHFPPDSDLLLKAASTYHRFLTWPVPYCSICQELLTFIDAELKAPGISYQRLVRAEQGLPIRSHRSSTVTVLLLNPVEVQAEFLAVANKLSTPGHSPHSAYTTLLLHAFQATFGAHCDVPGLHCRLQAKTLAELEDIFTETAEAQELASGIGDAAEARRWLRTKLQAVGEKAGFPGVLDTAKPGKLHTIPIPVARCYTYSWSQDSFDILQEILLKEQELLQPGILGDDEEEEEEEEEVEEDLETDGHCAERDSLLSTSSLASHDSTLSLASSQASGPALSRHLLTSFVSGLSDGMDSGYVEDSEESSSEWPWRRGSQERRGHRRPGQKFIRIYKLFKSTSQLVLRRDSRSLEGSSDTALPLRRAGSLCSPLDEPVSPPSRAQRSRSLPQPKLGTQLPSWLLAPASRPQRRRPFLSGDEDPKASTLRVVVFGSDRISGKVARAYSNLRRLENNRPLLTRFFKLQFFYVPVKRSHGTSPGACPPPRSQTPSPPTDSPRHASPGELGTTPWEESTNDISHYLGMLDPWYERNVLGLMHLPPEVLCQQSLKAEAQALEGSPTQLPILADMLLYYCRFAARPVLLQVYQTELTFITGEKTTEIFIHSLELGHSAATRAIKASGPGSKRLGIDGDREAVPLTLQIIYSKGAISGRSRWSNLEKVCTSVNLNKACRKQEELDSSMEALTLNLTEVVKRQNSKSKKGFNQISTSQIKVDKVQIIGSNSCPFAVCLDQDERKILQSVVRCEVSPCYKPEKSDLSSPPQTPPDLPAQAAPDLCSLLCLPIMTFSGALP

C/C(=N/N=C1/SCC(=O)N1C(=O)c1ccccc1)c1c(O)ccc2c(C)cc(=O)oc12 [VIIb]
IC50 (PI3K-α): 3.7 ± 0.19 µM
IC50 (PI3K-γ): 34.7 ± 1.88 µM
Apoptosis % Late (V+/PI+) (MCF-7 cells; MCF-7, treated at IC50, 48 h, control 0.17): 21.05%
Apoptosis % Early (V+/PI−) (MCF-7 cells; MCF-7, treated at IC50, 48 h, control 0.48): 2.51%
Necrosis% (MCF-7 cells; MCF-7, treated at IC50, 48 h, control 0.90): 11.69%
Apoptosis % Total (MCF-7 cells; MCF-7, treated at IC50, 48 h, control 1.55): 35.25%
fold increase in early apoptotic cells (MCF-7 cells; [1]): 5 fold
fold increase in late apoptotic cells (MCF-7 cells; [1]): 100 fold
level of Cyclin D1 (Cyclin D1, p-PI3K, p-Akt): effectively suppressed
level of p-Akt (Cyclin D1, p-PI3K, p-Akt): effectively suppressed
level of p-PI3K (Cyclin D1, p-PI3K, p-Akt): effectively suppressed
